Where two headings read alike, the source gives them in different places. Square brackets hold non-standard residues; d marks the D form. Ends that are not written are not given here. Peptide text beside a SMILES is read from it. Cit = NC(=O)NCCC[C@H](N)C(=O)O
Key:
HLA-DRB1*04:01 = biological target: T1, HLA-DRB1*04:01 (Homo sapiens, UniProt P01903+P01911, A100K/A169T/F76Y/I96L/K127E/L162R/M171V/N62H/P40V/Q125Y/R42H/S133A/S149N/S66Y/V115G/V209L/W38E); assay: HLA class II peptide binding, inhibition of radiolabeled peptide binding to purified MHC
T1 construct: EBV transformed homozygous cell lines were used as sources of MHC molecules; endogenous in cells; host or cells: EBV transformed homozygous cell lines

HLA-DRB1*01:01 = biological target: T2, HLA-DRB1*01:01 (Homo sapiens, UniProt P01903+P01911, A100R/D57E/F55L/F60I/F76Y/I96L/L162R/M171V/P40L/Q125E/R42F/V115G/Y59C); assay: as above
T2 construct: EBV transformed homozygous cell lines were used as sources of MHC molecules; endogenous in cells; host or cells: EBV transformed homozygous cell lines

[1] = citrullinated 15-mer peptide (X = citrulline), purified HLA-DRB1*04:01, read-out: DRB1*04:01 binding capacity, Cit peptide (IC50 nM)
[2] = ratio of WT IC50 to Cit IC50, >1 = citrullination increases binding
[3] = citrullinated 15-mer peptide (X = citrulline), purified HLA-DRB1*01:01, read-out: DRB1*01:01 binding capacity, Cit peptide (IC50 nM)
[4] = citrullinated 15-mer (X), purified MHC, inhibition of radiolabeled peptide binding, dash = IC50 >40,000 nM, read-out: DRB1*04:01 binding capacity, Cit peptide (IC50 nM)
[5] = citrullinated 15-mer (X), purified MHC, inhibition of radiolabeled peptide binding, dash = IC50 >40,000 nM, read-out: DRB1*01:01 binding capacity, Cit peptide (IC50 nM)

| Compound | IC50 (HLA-DRB1*04:01; [1]) [nM] | IC50 (HLA-DRB1*01:01; [3]) [nM] | IC50 (HLA-DRB1*04:01; [4]) [nM] | IC50 (HLA-DRB1*01:01; [5]) [nM] | also measured |
| --- | --- | --- | --- | --- | --- |
| CSCC[C@H](NC(=O)[C@H](CCC(=O)O)NC(=O)[C@H](CCCNC(N)=O)NC(=O)[C@H](CCSC)NC(=O)[C@H](CCC(N)=O)NC(=O)[C@H](CCCNC(=N)N)NC(=O)[C@H](CCC(=O)O)NC(=O)[C@H](CC(C)C)NC(=O)[C@H](CO)NC(=O)[C@H](CCC(=O)O)NC(=O)[C@H](CC(N)=O)NC(=O)[C@@H](N)[C@@H](C)O)C(=O)N[C@@H](CCC(=O)O)C(=O)N[C@@H](CCC(=O)O)C(=O)N[C@@H](CC(N)=O)C(=O)O [TNESLERQMXEMEEN] (H-TNESLERQM[Cit]EMEEN-OH) | > 40000 | 29700 | – | – | – |
| CC[C@H](C)[C@H](NC(=O)[C@H](CCC(=O)O)NC(=O)[C@@H](NC(=O)[C@H](CC(=O)O)NC(=O)[C@H](CC(C)C)NC(=O)[C@H](C)NC(=O)[C@@H](N)CCSC)[C@@H](C)CC)C(=O)N[C@@H](C)C(=O)N[C@H](C(=O)N[C@@H](Cc1ccc(O)cc1)C(=O)N[C@@H](CCCNC(N)=O)C(=O)N[C@@H](CCCCN)C(=O)N[C@@H](CC(C)C)C(=O)N[C@@H](CC(C)C)C(=O)N[C@@H](CCC(=O)O)C(=O)O)[C@@H](C)O [MALDIEIATYXKLLE] (H-MALDIEIATY[Cit]KLLE-OH) | 4950 | 64 | – | – | – |
| CC(C)C[C@H](NC(=O)[C@H](CC(C)C)NC(=O)[C@H](CCCNC(N)=O)NC(=O)[C@@H](NC(=O)CNC(=O)[C@@H]1CCCN1C(=O)[C@@H](NC(=O)[C@H](CO)NC(=O)[C@H](CO)NC(=O)[C@H](CCCNC(=N)N)NC(=O)[C@H](CC(C)C)NC(=O)[C@H](CCCNC(=N)N)NC(=O)[C@@H](NC(=O)[C@H](C)NC(=O)[C@@H](N)CO)C(C)C)C(C)C)C(C)C)C(=O)O [SAVRLRSSVPGVXLL] (H-SAVRLRSSVPGV[Cit]LL-OH) | – | – | 641 | 9.7 | – |
| RTYSLGSALRPSTSR [Vimentin 36 WT] | – | – | – | – | IC50 (HLA-DRB1*04:01; read-out: DRB1*04:01 binding capacity, WT peptide (IC50 nM)): 769 nM; IC50 (HLA-DRB1*01:01; read-out: DRB1*01:01 binding capacity, WT peptide (IC50 nM)): 11 nM |
| CC[C@H](C)[C@H](NC(=O)[C@H](CC(C)C)NC(=O)[C@H](CC(C)C)NC(=O)[C@@H](NC(=O)[C@H](CCCNC(=N)N)NC(=O)[C@H](CCCCN)NC(=O)[C@H](CO)NC(=O)[C@H](Cc1c[nH]cn1)NC(=O)[C@@H](N)[C@@H](C)O)[C@@H](C)O)C(=O)N[C@@H](CCCCN)C(=O)N[C@H](C(=O)N[C@H](C(=O)N[C@@H](CCC(=O)O)C(=O)N[C@H](C(=O)N[C@@H](CCCNC(N)=O)C(=O)O)[C@@H](C)O)C(C)C)[C@@H](C)O [THSKRTLLIKTVETX] (H-THSKRTLLIKTVET[Cit]-OH) | 6020 | 310 | – | – | – |

Second part, led by results:

| IC50 (HLA-DRB1*04:01; [1]) [nM] | IC50 (HLA-DRB1*01:01; [3]) [nM] | IC50 (HLA-DRB1*04:01; [4]) [nM] | IC50 (HLA-DRB1*01:01; [5]) [nM] | Compound | also measured |
| --- | --- | --- | --- | --- | --- |
| > 40000 | > 40000 | – | – | C[C@H](N)C(=O)N[C@@H](CCCNC(N)=O)C(=O)NCC(=O)N[C@@H](C)C(=O)N[C@@H](CCC(N)=O)C(=O)NCC(=O)N1CCC[C@H]1C(=O)N1CCC[C@H]1C(=O)NCC(=O)N[C@@H](C)C(=O)N[C@H](C(=O)NCC(=O)N[C@@H](Cc1ccccc1)C(=O)N1CCC[C@H]1C(=O)NCC(=O)O)[C@@H](C)O [AXGAQGPPGATGFPG] (H-A[Cit]GAQGPPGATGFPG-OH; N-terminus and C-terminus assumed) | DRB1*04:01 binding capacity, WT/cit ratio (HLA-DRB1*04:01; [2]): 1.0; DRB1*01:01 binding capacity, WT/cit ratio (HLA-DRB1*01:01; [2]): 0.7 |
| > 40000 | 569 | – | – | CC(C)[C@H](NC(=O)CNC(=O)[C@@H](NC(=O)[C@@H]1CCCN1C(=O)CN)[C@@H](C)O)C(=O)N[C@H](C(=O)NCC(=O)N1CCC[C@H]1C(=O)N[C@@H](CCCCN)C(=O)NCC(=O)N[C@@H](C)C(=O)N[C@@H](CCCNC(N)=O)C(=O)NCC(=O)N[C@@H](C)C(=O)N[C@@H](CCC(N)=O)C(=O)O)[C@@H](C)O [GPTGVTGPKGAXGAQ] (H-GPTGVTGPKGA[Cit]GAQ-OH) | – |
| – | – | 1110 | 292 | CC(C)C[C@H](NC(=O)[C@H](CC(=O)O)NC(=O)[C@H](C)NC(=O)[C@H](Cc1ccccc1)NC(=O)[C@H](CCCCN)NC(=O)[C@H](CO)NC(=O)[C@H](CCCCN)NC(=O)[C@@H](N)Cc1ccc(O)cc1)C(=O)N[C@@H](CO)C(=O)N[C@@H](CCC(=O)O)C(=O)N[C@@H](C)C(=O)N[C@@H](C)C(=O)N[C@@H](CC(N)=O)C(=O)N[C@@H](CCCNC(N)=O)C(=O)N[C@@H](CC(N)=O)C(=O)O [YKSKFADLSEAANXN] (H-YKSKFADLSEAAN[Cit]N-OH) | – |
| – | – | > 40000 | 4690 | CC[C@H](C)[C@H](NC(=O)[C@H](CC(=O)O)NC(=O)[C@H](CCC(=O)O)NC(=O)[C@H](C)NC(=O)[C@H](CC(C)C)NC(=O)[C@H](CC(N)=O)NC(=O)[C@@H](N)CC(=O)O)C(=O)N[C@@H](CCSC)C(=O)N[C@@H](CCCNC(N)=O)C(=O)N[C@@H](CC(C)C)C(=O)N[C@@H](CCCNC(=N)N)C(=O)N[C@@H](CCC(=O)O)C(=O)N[C@@H](CCCCN)C(=O)N[C@@H](CC(C)C)C(=O)N[C@@H](CCC(N)=O)C(=O)O [DNLAEDIMXLREKLQ] (H-DNLAEDIM[Cit]LREKLQ-OH) | – |
